Assay results taken from patent US8937068B2, “Pyridopyrazine derivatives and their use” (Zentaris GmbH, priority 2005, dated 2015).

Key:
PI3Kalpha = PI3Kalpha (Homo sapiens (Human), UniProt P42336); assay: Cell-free kinase assay (ALPHA technology), PI3Kalpha; format: biochemical; settings: 100 μM ATP
Outline: (§1)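 Recombinant human GST- or His-tagged kinases were assayed for 1 h with ALPHA bead detection read after overnight standing. For PI3Kalpha: 1 ng enzyme, 100 μM ATP, 20 μM PIP2 in Hepes pH 7.4, detected by GST:Grp1/biotin-PIP3 competition. The p38alpha and Jnk assays followed the MAPK format (10 μM ATP, biotin-MBP, anti-phospho-MBP); IC50 from %-inhibition.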

Jnk1 + Jnk2 = assay: Cell-free kinase assay (ALPHA technology), Jnk1 + Jnk2; format: biochemical, human; settings: 10 μM ATP
Outline: as §1

MDA-MB468 = assay: XTT assay, anti-proliferative effect, MDA-MB468; format: cell-based; settings: 45 h incubation
Description: The principle of this test is based on the intracellular reduction of the tetrazolium dye XTT (sodium 3′-[1-(phenylaminocarbonyl)-3,4-tetrazolium]-bis(4-methoxy-6-nitro)benzene sulfonic acid, Sigma) to a formazan dye by mitochondrial dehydrogenases. The dye is only formed by metabolically active cells and its photometrically measurable intensity is a quantitative indicator for the presence of living cells. The reduction of dye formation by incubation of the cells with substances serves as a parameter for the anti-proliferative effect.
The tumour cell lines (ATCC) were injected into 96-well microtitre plates in a defined cell number (5000 cells/well for BxPC3 and Hct116; 10000 cells/well for MDA MB468) and then incubated overnight in an incubator at 37° C., 5% CO2 and 95% air humidity. The test substances were prepared as stock solutions (10 mM) in DMSO. […] The cell plates were then incubated for 45 h in an incubator at 37° C., 5% CO2 and 95% air humidity.
For the detection reaction the substrate XTT was mixed with PMS (N-Methyl dibenzopyrazine methylsulfate, Sigma) and added to the cells so that a final concentration of 325 μg XTT/ml and 2.5 μg PMS/ml was obtained. It was then incubated for 3 h at 37° C., 95% air humidity. The formazan salt formed by the cellular dehydrogenases could then be quantified by adsorption at 490 nm.
The % inhibition value was evaluated by means of the following formula from the values for the optical densities measured in each case at 490 nm:
Eight determinations were made for each control and two for the substance samples. The 0% control contains no cells, the 100% control (proliferation control) contains no test substance. The EC50 values were determined using GraphPadPrism.

Sequence of PI3Kalpha (P42336 whole entry): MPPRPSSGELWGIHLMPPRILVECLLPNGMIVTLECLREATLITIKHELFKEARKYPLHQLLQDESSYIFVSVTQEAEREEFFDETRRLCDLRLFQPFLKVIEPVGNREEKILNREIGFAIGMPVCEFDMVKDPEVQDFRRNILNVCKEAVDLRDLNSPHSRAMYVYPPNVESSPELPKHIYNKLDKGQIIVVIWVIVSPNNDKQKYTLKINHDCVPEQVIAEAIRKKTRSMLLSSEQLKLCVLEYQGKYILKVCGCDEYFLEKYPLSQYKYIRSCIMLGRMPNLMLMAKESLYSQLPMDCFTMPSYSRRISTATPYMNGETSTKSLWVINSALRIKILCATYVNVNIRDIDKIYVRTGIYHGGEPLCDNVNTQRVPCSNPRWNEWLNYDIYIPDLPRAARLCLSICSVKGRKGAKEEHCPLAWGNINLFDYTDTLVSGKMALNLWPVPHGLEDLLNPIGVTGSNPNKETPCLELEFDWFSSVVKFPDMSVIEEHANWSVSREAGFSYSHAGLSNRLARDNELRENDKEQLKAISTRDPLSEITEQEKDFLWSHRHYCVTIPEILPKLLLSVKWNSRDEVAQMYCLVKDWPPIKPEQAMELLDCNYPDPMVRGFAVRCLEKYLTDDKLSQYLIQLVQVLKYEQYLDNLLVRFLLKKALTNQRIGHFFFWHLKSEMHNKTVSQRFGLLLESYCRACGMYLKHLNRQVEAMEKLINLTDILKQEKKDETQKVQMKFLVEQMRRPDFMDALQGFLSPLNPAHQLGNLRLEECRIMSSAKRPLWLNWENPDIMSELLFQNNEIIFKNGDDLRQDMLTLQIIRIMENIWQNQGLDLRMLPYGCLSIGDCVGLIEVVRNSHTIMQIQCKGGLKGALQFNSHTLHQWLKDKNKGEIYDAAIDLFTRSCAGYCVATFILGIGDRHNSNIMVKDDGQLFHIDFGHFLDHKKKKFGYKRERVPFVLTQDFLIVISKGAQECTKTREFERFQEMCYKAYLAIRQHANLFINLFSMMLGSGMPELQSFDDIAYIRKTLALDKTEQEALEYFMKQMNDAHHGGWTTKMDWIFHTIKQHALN
Sequence of PI3Kalpha (P27986 whole entry partner): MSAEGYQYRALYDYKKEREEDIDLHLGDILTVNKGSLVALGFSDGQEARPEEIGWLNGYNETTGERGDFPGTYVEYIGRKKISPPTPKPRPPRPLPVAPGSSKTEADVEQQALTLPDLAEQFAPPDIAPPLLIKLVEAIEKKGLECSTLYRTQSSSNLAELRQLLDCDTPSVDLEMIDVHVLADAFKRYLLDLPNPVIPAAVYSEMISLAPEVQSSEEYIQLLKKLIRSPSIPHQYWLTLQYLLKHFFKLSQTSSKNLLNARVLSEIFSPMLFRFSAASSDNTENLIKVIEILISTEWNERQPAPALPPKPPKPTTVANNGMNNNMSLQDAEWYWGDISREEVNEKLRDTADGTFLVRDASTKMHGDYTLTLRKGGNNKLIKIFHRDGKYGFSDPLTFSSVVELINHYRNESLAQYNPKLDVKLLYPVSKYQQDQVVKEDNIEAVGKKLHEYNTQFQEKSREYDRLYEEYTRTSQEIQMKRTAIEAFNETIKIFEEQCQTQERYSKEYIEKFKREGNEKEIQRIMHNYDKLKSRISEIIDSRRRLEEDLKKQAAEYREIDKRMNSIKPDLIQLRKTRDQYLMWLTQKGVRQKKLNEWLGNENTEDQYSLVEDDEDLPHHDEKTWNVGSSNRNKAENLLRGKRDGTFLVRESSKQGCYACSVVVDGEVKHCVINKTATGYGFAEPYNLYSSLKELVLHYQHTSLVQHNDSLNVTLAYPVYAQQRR

| IC50 (PI3Kalpha) [µM] | IC50 (Jnk1 + Jnk2) [µM] | EC50 (MDA-MB468) [µM] | EC50 (MDA-MB468; Homo sapiens, MDA-MB-468) [µM] | Structure (SMILES) |
| --- | --- | --- | --- | --- |
| 2.8 | 4.7 | 4.3 | – | CCNC(=O)Nc1ccc2ncc(-c3ccc(O)c(OC)c3)nc2n1.Cc1ccc(S(=O)(=O)O)cc1 [Compound 183, 1-Ethyl-3-[3-(4-hydroxy-3-methoxy-phenyl)-pyrido[2,3-b]pyrazin-6-yl]-urea p-Toluolsulfonate] |
| 2.4 | 2.9 | – | > 25 | CCNC(=O)Nc1ccc2ncc(-c3cnn(C)c3)nc2n1 [Compound 173, 1-Ethyl-3-[3-(1-methyl-1H-pyrazol-4-yl)-pyrido[2,3-b]pyrazin-6-yl]-urea] |
| 0.129 | > 100 | – | 4.3 | CCNC(=O)Nc1ccc2ncc(Nc3ccc(C)cc3)nc2n1 [Compound 150, 1-Ethyl-3-(3-p-tolylamino-pyrido[2,3-b]pyrazin-6-yl)-urea] |

Further lines, the molecule ahead of its results:

| Structure (SMILES) | IC50 (PI3Kalpha) [µM] | IC50 (Jnk1 + Jnk2) [µM] | EC50 (MDA-MB468) [µM] | EC50 (MDA-MB468; Homo sapiens, MDA-MB-468) [µM] |
| --- | --- | --- | --- | --- |
| C=CCNC(=S)Nc1ccc2ncc(-c3ccc(O)cc3)nc2n1 [Compound 30, 1-allyl-3-[3-(4-hydroxy-phenyl)-pyrido[2,3-b]pyrazin-6-yl]-thiourea] | 0.37 | 21.8 | – | 4 |
| CCNC(=O)Nc1ccc2ncc(-c3ccc(O)c(OC)c3)nc2n1 [Compound 124, 1-Ethyl-3-[3-(4-hydroxy-3-methoxy-phenyl)-pyrido[2,3-b]pyrazin-6-yl]-urea] | 0.49 | 1 | – | 10 |
| O=C(NCCCCO)Nc1ccc2ncc(-c3ccccc3)nc2n1 [Compound 146, 1-(4-Hydroxy-butyl)-3-(3-phenyl-pyrido[2,3-b]pyrazin-6-yl)-urea] | 1.1 | 3.3 | – | ~20 |
